# Data taken from US6372884B1, “Biologically active compounds and methods of constructing and using the same” (priority 1987, dated 2002).
# Ends that are not written are not given here.
# Assays:
# HIV [1] = assay: Blocking of virus binding by gp120 421-438 peptide
# Source text: A molecular model for the region 413-455 (FIG. 19) may be constructed based upon these structural concepts, utilizing a light-chain antibody structure known as REI (Bernstein et al., 1977, Mol. Biol. 112:535-542) as a template for the first and third hypervariable region, in which the cysteines in gp120 at positions 418 and 445 form a disulfide bridge. The cysteines are positionally conserved with respect to each other as in the light chain. The model may be energy optimized using molecular mechanics and dynamics. […] The in vitro biological activity of the 421-438 peptide fragment in modulating CD4-depending cellular function and this fragment's ability to induce an anti-HIV response is as described below.
# […]-infected H9 cells = Flow cytometry: mouse antisera binding to infected H9 cells; format: in vivo; conditions: subcutaneous immunization of mice
# [2] = tested on: recombinant glycosylated gp120; conditions: radiolabelled immunoprecipitations
# Protocol: The immunogenicity of B138 was determined by subcutaneous immunization of mice and rabbits.
# HIV [3] = assay: Infectivity assays with rabbit antisera; conditions: in vivo
# recombinant HIV-1 gp120 = conditions: rabbits immunized with peptide conjugated to KLH, FIG. 21
# Protocol: Antisera was obtained and tested for binding to recombinant HIV-1 gp120 peptide-coated radioimmunoassay plates (using 1 μg/ml gp120 at 50 μl/well, in 0.1 M NaHCO3 and incubating overnight at 4° C.). The indicator antibody was ^125I-labelled anti-rabbit immunoglobulin antibody.
# [4] = Rate of loss of sulfhydryls on air oxidation (Ellman determination); format: physicochemical; conditions: 2 mg/ml in 0.1 M NaHCO3, 37° C., exposed to air, FIG. 23
# [5] = Size-exclusion chromatography of oxidized peptides (Sephadex G-10); format: physicochemical; conditions: reduced versus non-reduced peptides
# 9B.G5 [6] = assay: Solid phase RIA: binding of 9B.G5 to peptide coated plates; conditions: FIG. 24
# Protocol: RIA plates (Dynatech Laboratories, Alexandria, Va.) were coated with peptides by evaporation of varying amounts of peptides in distilled water overnight at 37° C. The wells were washed with PBS, blocked with 2% bovine serum albumin (BSA) in PBS with 0.1% NaN3, and washed with PBS. Partially purified 9BG5 [(NH4)2SO4 precipitate] was added at varying dilutions for greater than 1 hour at 37° C. The wells were washed in PBS and 50,000-100,000 counts per minute of ^125I-labelled goat anti-mouse light chain (anti-k & anti-[Sigma] iodinated by chloramine T) was added per well in 1% BSA in PBS for 1-2 hours at 37° C. The wells were decanted, washed extensively, and CPM bound determined. Specific CPM bound was determined by subtracting the CPM bound to uncoated wells from the CPM bound to peptide coated wells.
# To assess the optimal conformation for binding of the VL peptide analogs, they were utilized to coat radioimmunoassay (RIA) plates, and 9B.G5 bound by standard RIA procedures.
# 9B.G5 [7] = assay: Competitive RIA: inhibition of 9B.G5 - 87.92.6 interaction; format: binding
# 9B.G5 [8] = assay: Competitive RIA: inhibition of 9B.G5 - reovirus type 3 interaction; format: binding
# [9] = tested on: reovirus type 3 receptor (Reo3R); assay: Flow cytometry: inhibition of 87.92.6 binding to cells; design: species or system murine; conditions: FIG. 29
# Protocol: The ability of peptides to inhibit antibody binding to cells was determined by preincubation of the cells with varying amounts of inhibitor (in 100 μl dH2O) for between 30 minutes and 1 hour at 23° C. Cells (either L cells or R1.1 cells) were washed in 1% BSA/PBS/0.1% NaN3, and resuspended at 10^7/ml. 100 μl of cells were then added in 1% BSA/PBS/0.1% NaN3, and the incubation continued for 20-30 minutes. Antibodies (5 or 10 μl were added for an additional 20 minutes at 23° C. Ice cold 1% BSA/PBS/0.1% NaN3, was added, the cells centrifuged and washed prior to counterstaining with a 1:100 dilution of FITC goat anti-mouse Ig (Fisher Scientific) in 1% BSA/PBS/0.1% NaN3. The cells were washed twice and fluorescence intensity determined. Inhibition of binding was calculated as noted above with mean channel number utilized in place of CPM.
# To assess the affinity of the cyclic peptides for the reovirus type 3 receptor (Reo3R), they were utilized in a series of assays to inhibit binding of 87.92.6 or control antibodies to specific receptors. […] The inhibition by VLC9C16 peptide was specific as binding of isotype matched monoclonal H013.4 to Thy2 molecules was not inhibited by VLC9C16 peptide (FIG. 30). Thus, VLC9C16 peptide is a specific Reo3R ligand with enhanced affinity compared with its linear analog.
# Thy2 molecules = target: T1, Thy2 molecules (Mus musculus, UniProt P01831); assay: Flow cytometry: inhibition of H013.4 binding (specificity); design: species or system murine; conditions: FIG. 30
# T1 sequence (P01831 20-131): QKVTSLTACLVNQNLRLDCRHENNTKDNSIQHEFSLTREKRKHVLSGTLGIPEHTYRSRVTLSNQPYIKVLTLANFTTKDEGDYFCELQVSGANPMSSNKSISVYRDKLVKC
# Reo3R = assay: Inhibition of 125I-labelled reovirus type 3 binding to the Reo3R on cells
# Protocol: The cells were centrifuged and washed twice in 1% BSA/PBS/0.1% NaN3. 5×10^4 cells or 1.25×10^6 R1.1 cells in 50 μl were distributed in 2% BSA/PBS/NaN3 blocked RIA wells. For peptide studies, 50 μl of inhibitor was added in dH2O to the cells. Following a 30 minute incubation, L cells and ^125I-labelled reovirus type 3 were combined for an additional 30 minutes at 37° C. The cells were spun, washed three times in ice cold PBS, and specific CPM bound was determined as noted above. Percent inhibition of binding was calculated by the formulae above.
# To further evaluate the interaction of VLC9C16 peptide with the Reo3R, the peptide was utilized to compete with ^125I-labelled reovirus type 3 for binding to the Reo3R.
# [10] = tested on: neutralizing monoclonal antibody 9BG5; format: binding, mouse
# reovirus type 3 [11] = tested on: reovirus type 3; design: species or system Balb/c mice; conditions: mouse, in vivo
# reovirus type 1 [12] = tested on: reovirus type 1; design: species or system Balb/c mice; conditions: mouse, in vivo
# reovirus type 3 [13] = tested on: reovirus type 3; design: species or system Balb/c mice; conditions: mouse, in vivo; remark: listed apart in the source
# reovirus type 1 [14] = tested on: reovirus type 1; design: species or system Balb/c mice; conditions: mouse, in vivo; remark: listed apart in the source
# type 3 virus = tested on: type 3 virus; design: species or system Balb/c mice; conditions: mouse, in vivo
# type 1 virus = tested on: type 1 virus; design: species or system Balb/c mice; conditions: mouse, in vivo
# reovirus type 3 [15] = tested on: reovirus type 3; design: species or system mice; conditions: mouse, in vivo
substance,measurement,setting,value
KQFINMWQEVGKAMYAPP [B138],blocking of virus binding,HIV [1],shown to block virus binding
same,binding of mouse antisera to infected H9 cells,[…]-infected H9 cells,preferentially bind
same,immunoprecipitation of recombinant glycosylated gp120 by rabbit antisera,[2],weakly
same,elicitation of neutralizing antibodies (infectivity assays with rabbit sera),HIV [3],could elicit neutralizing antibodies
same,level of antiserum antibody bound to gp120 coated plates,recombinant HIV-1 gp120,lower levels of bound antibody
KPGKTNKLCIYSGSTCQ (cysteine pairing not given here) [VLC9C16 peptide],rate of loss of sulfhydryls,[4],most rapid loss of sulfhydryls
same,molecular form following oxidation by size-exclusion chromatography,[5],remained chiefly as monomers
same,binding of 9B.G5 to peptide on solid phase RIA,9B.G5 [6],higher than binding to the other cyclic VL peptide analogs
same,increase in binding affinity for 9B.G5 compared with linear analog of VL peptide,"9B.G5 [7]; inhibition of 9B.G5 - 87.92.6 interaction, FIG. 26",40 fold
same,inhibition of 9B.G5 - 87.92.6 interaction,"9B.G5 [7]; liquid phase assay, FIGS. 25 and 26",higher affinity of interaction compared with the other cyclic peptide variants
same,"inhibition of binding of 125I-labelled reovirus type 3 to 9B.G5, compared with other cyclic peptides",9B.G5 [8]; FIG. 27,higher affinity than the other cyclic peptides
same,"inhibition of binding of 125I-labelled reovirus type 3 to 9B.G5, compared with linear VL and dimeric VLSH peptide",9B.G5 [8]; FIG. 28,"higher affinity than linear VL peptide, and similar affinity on a molar basis as dimeric VLSH peptide"
same,inhibition of binding of 87.92.6 to murine L cells,[9]; L cells,inhibited binding
same,inhibition of binding of 87.92.6 to R1.1 thymoma cells,[9]; R1.1 cells,inhibited binding
same,inhibition of binding of isotype matched monoclonal H013.4,Thy2 molecules,not inhibited
same,affinity for the Reo3R by competition with 125I-labelled reovirus type 3,Reo3R; FIG. 31,higher affinity for the Reo3R than VLC8C16 peptide or VLC10C16 peptide
same,increase in affinity for the Reo3R compared with linear VL peptide,Reo3R; competition with 125I-labelled reovirus type 3,40 fold
"Gln Ser Met --- Trp Ile Gly Ile Val Ser Tyr Ser Gly Ser Gly Leu Asn (WIGIVSYSGSGLN; N-terminal Gln-Ser-Met; printed: Trp Ile Gly Ile Val Ser Tyr Ser Gly Ser Gly Leu Asn) [reo peptide, amino acids 317-332 in the type 3 viral hemagglutinin]",specific binding of 9BG5 to peptide coated wells,[10],Strong reproducible binding
same,binding of immune serum to type 3 virus coated plates,reovirus type 3 [11],significant binding
same,binding of immune serum to type 1 virus coated plates,reovirus type 1 [12],significant binding
same,neutralization of L-cell lysis by reovirus type 3 by immune serum,reovirus type 3 [13],specifically neutralized
same,neutralization of L-cell lysis by reovirus type 1 by immune serum,reovirus type 1 [14],not type 1
same,inhibition of plaque formation by type 3 virus by immune serum,type 3 virus,specific inhibition of plaque formation
same,inhibition of plaque formation by type 1 virus by immune serum,type 1 virus,not type 1
same,proliferative response to reovirus type 3 in spleen cells from immunized mice,reovirus type 3 [15],type specific proliferative response
